Results reported in the Bradley open melting point set (2014).

| melting point [°C] | Structure (SMILES) |
| --- | --- |
| 15 | CC(Br)C(C)(C)Br (configuration not stated) [2,3-dibromo-2-methylbutane] |
| 32 | COc1cccc(Cl)c1Cl [2,3-dichloroanisole] |
| 67 | Clc1cccnc1Cl [2,3-dichloropyridine] |
| 6 | Cc1cccc(Cl)c1Cl [2,3-dichlorotoluene] |
| 123 | O=Cc1c(-c2ccccc2)nc2n1CCS2 [2,3-dihydro-6-phenylimidazo[2,1-b]thiazole-5-carboxaldehyde] |
| -21 | c1ccc2c(c1)CCO2 [2,3-dihydrobenzo[b]furan] |
| -157 | C=C(C)C(C)C [2,3-dimethyl-1-butene] |
| -74 | C/C(C)=C(/C)C [2,3-dimethyl-2-butene] |
| 93 | Cc1c([N+](=O)[O-])cc[n+]([O-])c1C [2,3-dimethyl-4-nitropyridine n-oxide] |
| 120 | O=c1c(-c2ccccc2)c1-c1ccccc1 [2,3-diphenyl-2-cyclopropen-1-one] |
| 100 | OB(O)c1cc(F)c(F)cc1F [2,4,5-trifluorobenzeneboronic acid] |
| -69 | C[SiH]1O[SiH](C)O[SiH](C)O[SiH](C)O1 (configuration not stated) [2,4,6,8-tetramethylcyclotetrasiloxane] |
| -43 | Cc1cc(C)nc(C)c1 [2,4,6-collidine] |
| 180 | NS(=O)(=O)c1c(Cl)cc(Cl)cc1Cl [2,4,6-trichlorobenzenesulfonamide] |
| 163 | O=C(O)c1c(Cl)cc(Cl)cc1Cl [2,4,6-trichlorobenzoic acid] |
| 23 | Clc1cc(Cl)nc(Cl)n1 [2,4,6-trichloropyrimidine] |
| 62 | Cc1cc(C)c(N=C=S)c(C)c1 [2,4,6-trimethylphenyl isothiocyanate] |
| 126 | CCC(C)(C)c1ccc(OCC(=O)O)c(C(C)(C)CC)c1 [2,4-di(tert-pentyl)phenoxyacetic acid] |
| 90 | OB(O)c1cnc(OCc2ccccc2)nc1OCc1ccccc1 [2,4-dibenzyloxypyrimidine-5-boronic acid] |
| 130 | Nc1c(Br)cc(Br)cc1[N+](=O)[O-] [2,4-dibromo-6-nitroaniline] |
| 60 | Cc1cc(C)c(Br)c(C)c1Br [2,4-dibromomesitylene] |
| 31 | O=[N+]([O-])c1ccc(Cl)cc1Cl [2,4-dichloro-1-nitrobenzene] |
| 34 | CC(=O)c1ccc(Cl)cc1Cl [2,4-dichloroacetophenone] |
| 159 | O=C(O)c1ccc(Cl)cc1Cl [2,4-dichlorobenzoic_acid] |

| melting point [°C] | Structure (SMILES) |
| --- | --- |
| 18 | O=C(Cl)c1ccc(Cl)cc1Cl [2,4-dichlorobenzoyl chloride] |
| 59 | O=C=Nc1ccc(Cl)cc1Cl [2,4-dichlorophenyl isocyanate] |
| -13 | Cc1ccc(Cl)cc1Cl [2,4-dichlorotoluene] |
| 72 | COc1ccc(C=O)c(OC)c1 [2,4-dimethoxybenzaldehyde] |
| 86 | Cc1c[nH]c(C)n1 [2,4-dimethylimidazole] |
| -119 | CC(C)CC(C)C [2,4-dimethylpentane] |
| -60 | Cc1ccnc(C)c1 [2,4-lutidine] |
| 201 | CC(C)(C)c1ccc2oc(-c3ccc(-c4nc5cc(C(C)(C)C)ccc5o4)s3)nc2c1 [2,5-bis(5-tert-butyl-2-benzoxazolyl)thiophene] |
| 54 | Nc1cc(Br)ccc1Br [2,5-dibromoaniline] |
| 213 | OB(O)c1cc(Cl)ccc1Cl [2,5-dichlorobenzeneboronic acid] |
| 295 | O=C(O)c1cc(Cl)c(C(=O)O)cc1Cl [2,5-dichloroterephthalic acid] |
| 20 | COc1ccc(OC)c(C(C)=O)c1 [2,5-dimethoxyacetophenone] |
| 93 | COc1ccc(OC)c(B(O)O)c1 [2,5-dimethoxybenzeneboronic acid] |
| 134 | Cc1ccc(C)c(C(=O)O)c1 [2,5-dimethylbenzoic acid] |
| 76 | Cc1ccc(C)c(O)c1 [2,5-dimethylphenol] |
| 20 | CC1=CC(=O)CC(C)(C)C1=O [2,6,6-trimethyl-2-cyclohexene-1,4-dione] |
| 67 | O=C1C(Cl)=CC(=NCl)C=C1Cl [2,6-Dichloro-4-(chloroimino)cyclohexa-2,5-dien-1-one] |
| 144 | O=C(O)c1c(Cl)cccc1Cl [2,6-Dichlorobenzoic acid] |
| -85 | CC1CNCC(C)O1 (configuration not stated) [2,6-Dimethylmorpholine] |
| 49 | Cc1cccc(C)c1O [2,6-Dimethylphenol] |
| -6 | Cc1cccc(C)n1 [2,6-Dimethylpyridine] |
| 116 | N#Cc1c(OCC(F)(F)F)cccc1OCC(F)(F)F [2,6-bis(2,2,2-trifluoroethoxy)benzonitrile] |
| 71 | Cc1cc(C(C)(C)C)c(O)c(C(C)(C)C)c1 [2,6-di-tert-butyl-4-methylphenol] |
| 67 | CC(C)(C)C1=CC(=O)C=C(C(C)(C)C)C1=O [2,6-di-tert-butyl-p-benzoquinone] |

| melting point [°C] | Structure (SMILES) |
| --- | --- |
| 122 | Nc1cccc(N)n1 [2,6-diaminopyridine] |
| 56 | CCCc1cc(Br)c(N)c(Br)c1 [2,6-dibromo-4-n-propylaniline] |
| 152 | OB(O)c1c(Cl)cccc1Cl [2,6-dichlorobenzeneboronic acid] |
| 144 | O=C(O)c1c(Cl)cccc1Cl [2,6-dichlorobenzoic_acid] |
| 138 | [O-][n+]1c(Cl)cccc1Cl [2,6-dichloropyridine n-oxide] |
| 125 | O=C(O)/C=C/c1c(F)cccc1F [2,6-difluorocinnamic acid] |
| 255 | COC1=CC(=O)C=C(OC)C1=O [2,6-dimethoxy-p-benzoquinone] |
| 55 | COc1cccc(OC)c1O [2,6-dimethoxyphenol] |
| 70 | CC1=CC(=O)C=C(C)C1=O [2,6-dimethyl-p-benzoquinone] |
| 49 | Cc1cccc(C)c1O [2,6-dimethylphenol] |
| -54 | CC(C)CCCCC(C)C [2,7-dimethyloctane] |
| -76 | CCOCCOCCO [2-(2-Ethoxyethoxy)ethanol] |
| 171 | O=C(O)/C=C/c1ccccc1B(O)O [2-(2-carboxyvinyl)benzeneboronic acid] |
| 111 | CC1(c2ccccc2B(O)O)OCCO1 [2-(2-methyl-1,3-dioxolan-2-yl)benzeneboronic acid] |
| 113 | NC(=O)C1=C(CCc2ccccc2)CCCC1 [2-(2-phenylethyl)cyclohex-1-ene-1-carboxamide] |
| 98 | c1cc(C2CNCCN2)cs1 (configuration not stated) [2-(3-thienyl)piperazine] |
| 86 | OCCc1ccc(OCc2ccccc2)cc1 [2-(4-benzyloxyphenyl)ethanol] |
| 58 | CCCC1COC(c2ccc(C#N)cc2)OC1 (configuration not stated) [2-(4-cyanophenyl)-5-n-propyl-1,3-dioxane] |
| 189 | Fc1ccc(-c2cc3ccccc3[nH]2)cc1 [2-(4-fluorophenyl)indole] |
| 91 | OCCc1ccc(O)cc1 [2-(4-hydroxyphenyl)ethanol] |
| 185 | Oc1ccccc1-c1ccno1 [2-(5-isoxazolyl)phenol] |
| -4.5 | CNCCO [2-(Methylamino)ethanol] |
| 147 | C=CCSc1ncccc1C(=O)O [2-(allylthio)nicotinic acid] |
| 124 | CC(C)(C)OC(=O)Nc1ccccc1B(O)O [2-(boc-amino)benzeneboronic acid] |

| Structure (SMILES) | melting point [°C] |
| --- | --- |
| CC(Br)C(Br)C(=O)O (configuration not stated) [2,3-dibromobutyric acid] | 86 |
| C=C(Cl)CCl [2,3-dichloro-1-propene] | -83 |
| C=C(C)C(=C)C [2,3-dimethyl-1,3-butadiene] | -76 |
| Cc1cccc(N)c1C [2,3-dimethylaniline] [listing 1 of 2 here] | 2 |
| Cc1cccc(N)c1C [2,3-dimethylaniline] [listing 2 of 2 here] | 3 |
| Oc1c(Br)cc(Br)cc1Br [2,4,6-tribromophenol] | 89 |
| Oc1ccc(Br)cc1Br [2,4-dibromophenol] | 40 |
| Nc1ccc([N+](=O)[O-])cc1[N+](=O)[O-] [2,4-dinitroaniline] | 177 |
| O=[N+]([O-])c1ccc(O)c([N+](=O)[O-])c1 [2,4-dinitrophenol] | 107 |
| Cc1cc(CCl)c(C)cc1CCl [2,5-Di(Chloromethyl)-p-xylene] | 132 |
| Cc1cc(CCl)c(C)cc1CCl [2,5-bis(chloromethyl)-p-xylene] | 132 |
| O=[N+]([O-])c1c(Br)sc(Br)c1[N+](=O)[O-] [2,5-dibromo-3,4-dinitrothiophene] | 136 |
| Nc1cc(Cl)ccc1Cl [2,5-dichloroaniline] [listing 1 of 2 here] | 50 |
| Nc1cc(Cl)ccc1Cl [2,5-dichloroaniline] [listing 2 of 2 here] | 50 |
| O=[N+]([O-])c1cc(Cl)ccc1Cl [2,5-dichloronitrobenzene] | 56 |
| Cc1c(N)cccc1N [2,6-diaminotoluene] | 97 |
| Nc1c(Br)cc([N+](=O)[O-])cc1Br [2,6-dibromo-4-nitroaniline] | 207 |
| O=[N+]([O-])/C=C/c1c(Cl)cccc1Cl [2,6-dichloro-beta-nitrostyrene] | 65 |
| Nc1c(Cl)cccc1Cl [2,6-dichloroaniline] | 39 |
| O=C(O)c1ccccc1C(=O)Nc1cccc2ccccc12 [2-(1-Naphthylcarbamoyl)benzoic acid] | 203 |
| CC(Oc1cc(Cl)c(Cl)cc1Cl)C(=O)O (configuration not stated) [2-(2,4,5-trichlorophenoxy)propionic acid] | 178 |
| CC(Oc1ccc(Cl)cc1Cl)C(=O)O (configuration not stated) [2-(2,4-dichlorophenoxy)propionic acid] | 114 |
| CCCCOCCOCCOC(C)=O [2-(2-n-butoxyethoxy)ethyl acetate] | -32 |
| CNC(C)C(O)c1ccccc1 (configuration not stated) [2-(Methylamino)-1-phenylpropan-1-ol] | 36 |
| BrCc1nc2ccccc2s1 [2-(bromomethyl)benzothiazole] | 48 |
